Data published in ChEMBL document CHEMBL4130624, “Optimization of 1,4-Oxazine β-Secretase 1 (BACE1) Inhibitors Toward a Clinical Candidate” (J Med Chem, 2018).

How the values were obtained:
[1] = target: Voltage-gated inwardly rectifying potassium channel KCNH2 (Homo sapiens, UniProt Q12809); test: Inhibition of human ERG expressed in HEK293 cell membranes by radioligand binding assay
[2] = Drug metabolism in mouse liver hepatocytes at 1 uM after 60 mins in presence of NADPH by HPLC-MS/MS analysis; assay type: ADME, cell-based, Hepatocyte; conditions: read-out: Drug metabolism
Cavia porcellus = test: Cardiotoxicity in anesthetized guinea pigs assessed as drug level causing QTcB prolongation dosed up to 10 mg/kg, iv administered over a period of 5 min at 15 min interval by ECG analysis; assay type: toxicity, organism-based; conditions: guinea pig, in vivo
Canis familiaris = test: Antialzheimer activity in po dosed Beagle dog assessed as reduction in amyloid beta (1 to 40) levels measured after 1 hr post dose by ELISA; assay type: functional, organism-based, Canis lupus familiaris
[3] = Cmax in anesthetized guinea pig; assay type: ADME, organism-based, Cavia porcellus; conditions: in vivo
Beta-secretase 1 [4] = target: T1, Beta-secretase 1 (Homo sapiens, UniProt P56817); test: Inhibition of BACE1 (1 to 454 residues) (unknown origin) using APP derived polypeptide harboring Lys-Met/Asn-Leu mutation as substrate by FRET assay
T1 sequence (P56817 whole entry, the tested form may be a part): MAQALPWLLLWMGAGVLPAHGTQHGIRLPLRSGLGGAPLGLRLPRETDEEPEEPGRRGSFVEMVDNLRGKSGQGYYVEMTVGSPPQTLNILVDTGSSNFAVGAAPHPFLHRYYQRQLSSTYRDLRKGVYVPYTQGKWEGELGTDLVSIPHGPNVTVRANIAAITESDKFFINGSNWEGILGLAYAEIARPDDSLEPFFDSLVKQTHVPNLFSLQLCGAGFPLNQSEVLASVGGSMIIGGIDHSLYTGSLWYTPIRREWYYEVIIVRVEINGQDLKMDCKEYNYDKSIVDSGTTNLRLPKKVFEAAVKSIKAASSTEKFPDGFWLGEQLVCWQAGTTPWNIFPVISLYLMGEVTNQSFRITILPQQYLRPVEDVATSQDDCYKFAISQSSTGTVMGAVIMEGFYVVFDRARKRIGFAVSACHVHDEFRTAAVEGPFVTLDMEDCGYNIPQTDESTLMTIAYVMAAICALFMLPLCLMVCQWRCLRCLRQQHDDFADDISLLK

Beta-secretase 1 [5] = target: T1, Beta-secretase 1; test: Inhibition of BACE1 in human SKNBE2 cells transfected with APP695 protein assessed as reduction in amyloid beta (1 to 42) levels after 18 hrs by sandwich alphalisa assay; assay type: cell-based
hERG (KCNH2) = hERG (KCNH2) (Homo sapiens, UniProt Q12809); test: Inhibition of human ERG expressed in HEK293 cells assessed as reduction in outward potassium current at 3 uM at holding potential was -80 mV after 5 mins by patch clamp assay; assay type: cell-based; conditions: HEK293 cells that express hERG
hERG (KCNH2), sequence (Q12809 whole entry): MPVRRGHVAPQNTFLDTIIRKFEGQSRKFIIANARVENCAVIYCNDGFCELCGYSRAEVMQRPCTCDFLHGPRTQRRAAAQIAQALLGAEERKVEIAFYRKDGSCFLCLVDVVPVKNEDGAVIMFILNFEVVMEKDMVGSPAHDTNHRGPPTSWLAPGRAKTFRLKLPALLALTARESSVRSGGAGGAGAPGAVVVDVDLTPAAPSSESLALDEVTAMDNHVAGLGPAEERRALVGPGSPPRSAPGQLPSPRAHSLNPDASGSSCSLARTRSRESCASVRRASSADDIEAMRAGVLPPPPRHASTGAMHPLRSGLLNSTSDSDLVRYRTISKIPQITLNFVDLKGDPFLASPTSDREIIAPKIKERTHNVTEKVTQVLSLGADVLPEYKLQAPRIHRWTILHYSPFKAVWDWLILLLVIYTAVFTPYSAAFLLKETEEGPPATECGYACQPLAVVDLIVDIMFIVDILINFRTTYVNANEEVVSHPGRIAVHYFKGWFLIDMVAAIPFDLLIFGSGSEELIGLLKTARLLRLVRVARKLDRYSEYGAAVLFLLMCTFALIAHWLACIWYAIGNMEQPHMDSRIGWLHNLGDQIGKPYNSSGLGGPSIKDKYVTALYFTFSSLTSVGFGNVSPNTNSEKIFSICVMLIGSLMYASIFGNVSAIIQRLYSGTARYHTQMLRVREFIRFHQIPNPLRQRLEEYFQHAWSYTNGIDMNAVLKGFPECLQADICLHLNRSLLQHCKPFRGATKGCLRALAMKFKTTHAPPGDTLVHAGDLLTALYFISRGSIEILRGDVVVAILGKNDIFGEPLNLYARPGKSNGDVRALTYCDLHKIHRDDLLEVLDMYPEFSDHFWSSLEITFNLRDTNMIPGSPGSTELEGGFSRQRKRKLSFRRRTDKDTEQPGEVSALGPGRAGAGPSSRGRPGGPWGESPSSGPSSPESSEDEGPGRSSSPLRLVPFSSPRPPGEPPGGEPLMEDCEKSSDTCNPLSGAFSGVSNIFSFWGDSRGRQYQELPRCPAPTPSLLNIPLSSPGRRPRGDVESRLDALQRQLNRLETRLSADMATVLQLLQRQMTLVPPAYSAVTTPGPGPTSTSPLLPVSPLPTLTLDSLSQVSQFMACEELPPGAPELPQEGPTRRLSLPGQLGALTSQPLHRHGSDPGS

[6] = Dissociation constant, pKa of the compound at 25 degC by potentiometric titration assay; assay type: physicochemical
[7] = Fraction unbound in mouse plasma at 5 uM after 4.5 hrs by HPLC-MS/MS method based rapid equilibrium dialysis; assay type: ADME, cell-free
[8] = Fraction unbound in rat brain at 5 uM after 5 hrs by HPLC-MS/MS method based rapid equilibrium dialysis; assay type: ADME, tissue-based
[9] = Ratio of total drug level in brain to plasma of in CD1 Swiss specific pathogen free mouse at 10 mg/kg, po after 4 hrs; assay type: ADME, organism-based
[10] = Ratio of total unbound drug level in brain to plasma of in CD1 Swiss specific pathogen free mouse at 10 mg/kg, po after 4 hrs; assay type: ADME, organism-based; conditions: read-out: K(p,uu,brain)
Mus musculus [11] = test: Antialzheimer activity in CD1 Swiss specific pathogen free mouse assessed as reduction in amyloid beta (1 to 40) levels at 10 mg/kg, po measured after 1 hr post dose by ELISA; assay type: functional; parameters: scale not given: the % may be the effect or the level left
Mus musculus [12] = test: Antialzheimer activity in CD1 Swiss specific pathogen free mouse assessed as reduction in amyloid beta (1 to 40) levels at 10 mg/kg, po measured after 2 hrs post dose by ELISA; assay type: functional; parameters: scale not given: the % may be the effect or the level left
Mus musculus [13] = test: Antialzheimer activity in CD1 Swiss specific pathogen free mouse assessed as reduction in amyloid beta (1 to 40) levels at 10 mg/kg, po measured after 4 hrs post dose by ELISA; assay type: functional; parameters: scale not given: the % may be the effect or the level left
[14] = test system: MDR1 (P-gp) (Homo sapiens); test: Apparent permeability across apical to basolateral side in pig LLC cells transfected with human MDR1 at 5 uM in absence of elacridar by LC-MS/MS analysis; conditions: LLC-PK1
[15] = Drug uptake in mouse brain at 30 mg/kg, po measured at 2 to 4 hrs; assay type: ADME, organism-based; conditions: in vivo
[16] = Drug metabolism in human liver microsomes at 1 uM after 15 mins in presence of NADPH by HPLC-MS/MS analysis; assay type: ADME, microsome; conditions: read-out: Drug metabolism
[17] = Drug metabolism in mouse liver microsomes at 1 uM after 15 mins in presence of NADPH by HPLC-MS/MS analysis; assay type: ADME, microsome; conditions: read-out: Drug metabolism
TK6 [18] = test: Genotoxicity in human TK6 cells up to […] after 24 hrs in absence of rat liver S9 fraction by micronucleus assay; assay type: toxicity, cell-based; conditions: tk6, 24 h
TK6 [19] = test: Genotoxicity in human TK6 cells at 500 ug/ml after 24 hrs in presence of rat liver S9 fraction by micronucleus assay; assay type: toxicity, cell-based; conditions: s9, 24 h
[20] = Drug uptake in mouse brain at 10 mg/kg, po measured at 2 to 4 hrs; assay type: ADME, organism-based; conditions: in vivo
[21] = Plasma concentration in mouse at 10 mg/kg, po after 4 hrs; assay type: ADME, organism-based
HepG2 = test: Cytotoxicity against human HepG2 cells assessed as effect on cell health indicators after 72 hrs by automated fluorescence microscopy based high content screening based assay; assay type: ADME; conditions: hepg2, 72 h

Voltage-gated inwardly rectifying potassium channel KCNH2, sequence (Q12809 whole entry): as above

SMILES | IC50 [1] [nM] | IC50 (Beta-secretase 1 [4]) [nM] | IC50 (Beta-secretase 1 [5]) [nM] | inhibition at 5 min, 3 µM (hERG (KCNH2)) [%] | metabolised at 0.25 h, 1 µM [16] [%] | metabolised at 0.25 h, 1 µM [17] [%] | other results
C[C@]1(c2cc(NC(=O)c3ccc(C#N)cn3)ccc2F)N=C(N)CO[C@@H]1F | 8000 |  |  |  |  |  | metabolised at 1 h, 1 µM [2]: 0%; LOAEL (Cavia porcellus): 475 ng/mL; fLOAEL (Cavia porcellus): 0.55 µM; fNOAEL (Cavia porcellus): 0.2 µM; fEC50 (Canis familiaris): 0.023 µM; Cmax [3]: 475 ng/mL
C[C@]1(c2cc(NC(=O)c3cnc(OC(F)(F)C(F)(F)F)cn3)ccc2F)N=C(N)CO[C@H]1C(F)(F)F |  | 30.2 | 49 |  |  |  | 
COc1cnc(C(=O)Nc2ccc(F)c([C@@]3(C)N=C(N)CO[C@H]3C(F)F)c2)cn1 | > 10000 | 11.4 | 4.9 | 24 |  |  | pKa [6]: 8.4; fraction unbound at 4.5 h, 5 µM [7]: 0.279; fraction unbound at 5 h, 5 µM [8]: 0.047; Kp at 4 h [9]: 0.4; Kp uu at 4 h [10]: 0.07; Activity (Mus musculus [11]): 11%; Activity (Mus musculus [12]): 38%; Activity (Mus musculus [13]): 40%; Papp A→B at 5 µM [14]: 4.8 ×10⁻⁶ cm/s
C[C@]1(c2cc(NC(=O)c3ncc(C#N)cc3F)ccc2F)N=C(N)CO[C@@H]1F | > 10000 | 18.4 | 12.2 | 24 | 11 | 19 | Drug uptake [15]: Not Active; Papp A→B at 5 µM [14]: 1.05 ×10⁻⁶ cm/s
C[C@]1(c2cc(NC(=O)c3cnc(NCC(F)(F)F)cn3)ccc2F)N=C(N)CO[C@H]1C(F)(F)F |  | > 10000 | 4500 |  |  |  | 
C[C@@]1(c2cc(N/C=C/c3ccc(C#N)cn3)ccc2F)COCC(N)=N1 |  | 2340 | 251 |  |  |  | 
COc1cnc(C(=O)Nc2ccc(F)c([C@@]3(C)N=C(N)CO[C@@H]3F)c2)cn1 | > 10000 |  |  |  |  |  | Kp at 4 h [9]: 0.6; Kp uu at 4 h [10]: 0.09; Activity (Mus musculus [11]): 39%; Activity (Mus musculus [12]): 65%
C[C@]1(c2cc(NC(=O)c3cnc(NC4CC4)cn3)ccc2F)N=C(N)CO[C@H]1C(F)(F)F |  | 3020 | 603 |  |  |  | 
C[C@]1(c2cc(N)ccc2F)N=C(N)CO[C@H]1C(F)(F)F |  |  |  |  |  |  | Activity (TK6 [18]): Non-Toxic; Activity (TK6 [19]): Non-Toxic
COc1cnc(C(=O)Nc2ccc(F)c([C@@]3(C)N=C(N)COC3=C(F)F)c2)cn1 | > 10000 | 151 | 35.1 |  |  |  | pKa [6]: 7.9; fraction unbound at 4.5 h, 5 µM [7]: 0.146; fraction unbound at 5 h, 5 µM [8]: 0.017; Kp at 4 h [9]: 0.97; Kp uu at 4 h [10]: 0.11; Activity (Mus musculus [12]): 6%; Activity (Mus musculus [13]): 7%; Papp A→B at 5 µM [14]: 8.63 ×10⁻⁶ cm/s
C[C@]1(c2cc(NC(=O)c3ncc(C#N)cc3Cl)ccc2F)N=C(N)CO[C@@H]1F | > 10000 | 10.7 | 15.5 | 19 | 1 | 0 | Drug uptake [20]: Not Active; metabolised at 1 h, 1 µM [2]: 55%; concentration at 4 h [21]: 38 ng/mL; Papp A→B at 5 µM [14]: 3.06 ×10⁻⁶ cm/s
C[C@]1(c2cc(NC(=O)c3ncc(C#N)cc3Cl)ccc2F)N=C(N)CO[C@H]1C(F)(F)F |  |  |  | 13 | 38 | 38 | 
C[C@]1(c2cc(NC(=O)c3ccc(Cl)cn3)ccc2F)N=C(N)CO[C@H]1C(F)(F)F |  |  |  | 27 | 0 | 48 | MTC (HepG2): 13.6 µM
C[C@]1(c2cc(NC(=O)c3cnc(OCC(F)(F)F)cn3)ccc2F)N=C(N)CO[C@H]1C(F)(F)F |  | 24.5 | 20.9 |  |  |  | 
C[C@]1(c2cc(-c3cncnc3)ccc2F)N=C(N)CO[C@H]1C(F)(F)F (racemic) |  | 1860 | 631 |  | 7 | 51 | 
COc1cnc(C(=O)Nc2ccc(F)c([C@@]3(C)N=C(N)CO[C@H]3C(F)(F)F)c2)cn1 | > 10000 |  |  | 19 | 2 | 19 | pKa [6]: 7.8; fraction unbound at 4.5 h, 5 µM [7]: 0.155; fraction unbound at 5 h, 5 µM [8]: 0.02; Kp at 4 h [9]: 1.81; Kp uu at 4 h [10]: 0.23; Activity (Mus musculus [11]): 23%; Activity (Mus musculus [12]): 37%; Activity (Mus musculus [13]): 29%; MTC (HepG2): 15.6 µM; Papp A→B at 5 µM [14]: 13.7 ×10⁻⁶ cm/s
COCCOc1cnc(C(=O)Nc2ccc(F)c([C@@]3(C)N=C(N)CO[C@H]3C(F)(F)F)c2)cn1 |  | 40.7 | 12.5 |  | 56 | 59 | 
C[C@]1(c2cc(NC(=O)c3cnc(N4CCC4)cn3)ccc2F)N=C(N)CO[C@H]1C(F)(F)F |  | 457 | 115 |  |  |  | 
